Measured values: PubChem BioAssay (NCI)
Values joined by “and” are separate entries in the source; they are usually repeats but may differ in a detail not shown here. Equal entries are not always repeated.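 96-well plates; 48 h exposure; 5 concentrations. Endpoints by linear interpolation between flanking doses. Not reached: highest tested concentration assigned. Here, GI50 denotes the concentration required for 50% inhibition of growth. Definition used: TGI = concentration required for complete inhibition of growth.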

Columns and labels:
Assay in all cases: DTP human tumour cell line panel, 48 h
786-0 renal = test system: 786-0 renal
A549 NSCLC = test system: A549 NSCLC
CAKI-1 renal = test system: CAKI-1 renal
EKVX NSCLC = test system: EKVX NSCLC
MDA-N = test system: MDA-N
NCI-H226 lung = test system: NCI-H226 lung
SF-268 CNS = test system: SF-268 CNS
SK-MEL-28 melanoma = test system: SK-MEL-28 melanoma
SNB-75 CNS = test system: SNB-75 CNS
U251 CNS = test system: U251 CNS

## COc1ccc2c(c1)CC[C@@H]1C2CC[C@]2(C)C(=C=CP(=O)(O)O)CCC12 (some centres undefined)
786-0 renal
  TGI: > 100 µM
A549 NSCLC
  TGI: > 100 µM
CAKI-1 renal
  TGI: > 100 µM
EKVX NSCLC
  TGI: > 100 µM
MDA-N
  TGI: > 100 µM
NCI-H226 lung
  TGI: > 100 µM
SF-268 CNS
  TGI: > 100 µM
SK-MEL-28 melanoma
  TGI: > 100 µM
SNB-75 CNS
  TGI: > 100 µM
U251 CNS
  TGI: > 100 µM

## O=S(=O)(O)c1cc(O)c(N=Nc2ccc3ccccc3c2O)c2ccccc12
786-0 renal
  TGI: > 100 µM
A549 NSCLC
  TGI: 52.6 µM
CAKI-1 renal
  TGI: 70.6 µM
EKVX NSCLC
  TGI: > 100 µM
MDA-N
  TGI: > 100 µM
NCI-H226 lung
  TGI: 49.5 µM
SF-268 CNS
  TGI: 58.7 µM
SK-MEL-28 melanoma
  TGI: > 100 µM
SNB-75 CNS
  TGI: 79.1 µM
U251 CNS
  TGI: > 100 µM

## c1ccc(-c2c(-c3[nH]c4ccccc4c3-c3ccccc3)[nH]c3ccccc23)cc1
786-0 renal
  TGI: 4.08 µM
A549 NSCLC
  TGI: 13.5 µM
CAKI-1 renal
  TGI: 13.8 µM
EKVX NSCLC
  TGI: 14.1 µM
MDA-N
  TGI: 7.46 µM
NCI-H226 lung
  TGI: 25.6 µM
SF-268 CNS
  TGI: 21.5 µM
SK-MEL-28 melanoma
  TGI: 25.7 µM
SNB-75 CNS
  TGI: 14.9 µM
U251 CNS
  TGI: 14.8 µM

## CSc1nc(C)c2c(n1)N(c1ccc(Cl)cc1)CC2
786-0 renal
  TGI: > 100 µM
A549 NSCLC
  TGI: > 100 µM
CAKI-1 renal
  TGI: > 100 µM
EKVX NSCLC
  TGI: > 100 µM
MDA-N
  TGI: > 100 µM
NCI-H226 lung
  TGI: > 100 µM
SF-268 CNS
  TGI: > 100 µM
SK-MEL-28 melanoma
  TGI: > 100 µM
SNB-75 CNS
  TGI: 38.8 µM
U251 CNS
  TGI: > 100 µM

## COC(=O)C(=O)C(C(=O)C(=O)Nc1ccc(C)c(C)c1)c1nc2ccc([N+](=O)[O-])cc2[nH]c1=O (centres undefined)
786-0 renal
  TGI: > 100 µM
A549 NSCLC
  TGI: > 100 µM
CAKI-1 renal
  TGI: > 100 µM
EKVX NSCLC
  TGI: > 100 µM
MDA-N
  TGI: > 100 µM
NCI-H226 lung
  TGI: > 100 µM
SF-268 CNS
  TGI: > 100 µM
SK-MEL-28 melanoma
  TGI: > 100 µM
SNB-75 CNS
  TGI: > 100 µM
U251 CNS
  TGI: > 100 µM

## CCc1cc2c(c3c1CCCC3=O)CC1(C2)Cc2cc(CC)c3c(c2C1)C(=O)CCC3
786-0 renal
  TGI: > 100 µM
A549 NSCLC
  TGI: > 100 µM
CAKI-1 renal
  TGI: > 100 µM
EKVX NSCLC
  TGI: > 100 µM
MDA-N
  TGI: > 100 µM
NCI-H226 lung
  TGI: > 100 µM
SF-268 CNS
  TGI: > 100 µM
SK-MEL-28 melanoma
  TGI: > 100 µM
SNB-75 CNS
  TGI: > 100 µM
U251 CNS
  TGI: > 100 µM

## CC[C@@]1(O)C(=O)OCc2c1cc1n(c2=O)Cc2c-1nc1ccccc1c2C=Nc1ccccc1N[C@@H]1c2cc3c(cc2[C@@H](c2cc(OC)c(O)c(OC)c2)[C@H]2C(=O)OC[C@@H]21)OCO3
786-0 renal
  TGI: 0.339 µM
A549 NSCLC
  TGI: 7.62 µM
CAKI-1 renal
  GI50: 0.0138 µM
  TGI: 0.807 µM and 0.494 µM
EKVX NSCLC
  GI50: 3.77 µM and 0.791 µM
  TGI: > 44.5 µM
MDA-N
  GI50: 0.616 µM and 0.183 µM
  TGI: 28 µM and 3.12 µM
NCI-H226 lung
  TGI: 3.05 µM
SF-268 CNS
  TGI: > 82.3 µM
SK-MEL-28 melanoma
  GI50: 11.4 µM and 1.17 µM
  TGI: 35 µM and > 50 µM
SNB-75 CNS
  TGI: 5.48 µM and 0.647 µM
U251 CNS
  TGI: 34.6 µM

## O=C1C=C/C(=C/[C@H]2SSC=C[C@]23C=CC(=O)C3)C1
786-0 renal
  TGI: 28.7 µM
A549 NSCLC
  TGI: 63.2 µM
CAKI-1 renal
  TGI: 24.8 µM
EKVX NSCLC
  TGI: 63.6 µM
MDA-N
  TGI: 51.3 µM
NCI-H226 lung
  TGI: 29.2 µM
SF-268 CNS
  TGI: > 85.2 µM
SK-MEL-28 melanoma
  TGI: 42 µM
SNB-75 CNS
  TGI: > 100 µM
U251 CNS
  TGI: > 100 µM

## CCOC(=O)c1cc2c3c(cc(OC)c2[nH]1)N(C(=O)OCC)CC3
786-0 renal
  TGI: > 100 µM
A549 NSCLC
  TGI: > 100 µM
CAKI-1 renal
  TGI: > 100 µM
EKVX NSCLC
  TGI: > 100 µM
MDA-N
  TGI: > 100 µM
NCI-H226 lung
  TGI: > 100 µM
SF-268 CNS
  TGI: > 100 µM
SK-MEL-28 melanoma
  TGI: > 100 µM
SNB-75 CNS
  TGI: > 100 µM
U251 CNS
  TGI: > 100 µM

## Cc1cc2c(cc1Cl)Sc1n[nH]c(=O)n1S2(=O)=O
786-0 renal
  TGI: > 100 µM
A549 NSCLC
  TGI: > 100 µM
CAKI-1 renal
  TGI: > 100 µM
EKVX NSCLC
  TGI: > 100 µM
MDA-N
  TGI: > 100 µM
NCI-H226 lung
  TGI: > 100 µM
SF-268 CNS
  TGI: > 100 µM
SK-MEL-28 melanoma
  TGI: > 100 µM
SNB-75 CNS
  TGI: > 100 µM
U251 CNS
  TGI: > 100 µM

## CC(=O)N1c2cc(N=NN(C)C)ccc2NC(=O)CC1C (centres undefined)
786-0 renal
  TGI: > 100 µM
A549 NSCLC
  TGI: > 100 µM
CAKI-1 renal
  TGI: > 100 µM
EKVX NSCLC
  TGI: > 100 µM
MDA-N
  TGI: > 100 µM
NCI-H226 lung
  TGI: > 100 µM
SF-268 CNS
  TGI: > 100 µM
SK-MEL-28 melanoma
  TGI: > 100 µM
SNB-75 CNS
  TGI: > 100 µM
U251 CNS
  TGI: > 100 µM

## O=C1/C(=C/c2ccc(Cl)cc2)Oc2ccccc21
786-0 renal
  TGI: 29.7 µM
A549 NSCLC
  TGI: 35 µM
CAKI-1 renal
  TGI: 12.6 µM
EKVX NSCLC
  TGI: 46.1 µM
MDA-N
  TGI: > 100 µM
NCI-H226 lung
  TGI: 68 µM
SF-268 CNS
  TGI: > 100 µM
SK-MEL-28 melanoma
  TGI: > 100 µM
SNB-75 CNS
  TGI: 98.5 µM
U251 CNS
  TGI: > 100 µM

## S=c1[nH]n2c(COc3cc(Cl)c(OCc4nnc5sc(=S)[nH]n45)cc3Cl)nnc2s1
786-0 renal
  TGI: > 100 µM
A549 NSCLC
  TGI: > 100 µM
CAKI-1 renal
  TGI: > 100 µM
EKVX NSCLC
  TGI: > 100 µM
MDA-N
  TGI: > 100 µM
NCI-H226 lung
  TGI: > 100 µM
SF-268 CNS
  TGI: > 100 µM
SK-MEL-28 melanoma
  TGI: > 100 µM
SNB-75 CNS
  TGI: > 100 µM
U251 CNS
  TGI: > 100 µM

## CCOC(=O)c1cn(CC)c2ccc3c(c2c1=O)S(=O)(=O)C=C3
786-0 renal
  TGI: > 100 µM
A549 NSCLC
  TGI: > 100 µM
CAKI-1 renal
  TGI: > 100 µM
EKVX NSCLC
  TGI: > 100 µM
MDA-N
  TGI: > 100 µM
NCI-H226 lung
  TGI: > 100 µM
SF-268 CNS
  TGI: > 100 µM
SK-MEL-28 melanoma
  TGI: > 100 µM
SNB-75 CNS
  TGI: > 100 µM
U251 CNS
  TGI: > 100 µM

## c1cc2c(cc1[C@@H]1OC[C@@H]3[C@H]1CO[C@H]3c1ccc3c(c1)OCO3)OCO2
786-0 renal
  TGI: > 100 µM
A549 NSCLC
  TGI: > 100 µM
CAKI-1 renal
  TGI: > 100 µM
EKVX NSCLC
  TGI: 83.6 µM
MDA-N
  TGI: > 100 µM
NCI-H226 lung
  TGI: > 100 µM
SF-268 CNS
  TGI: > 100 µM
SK-MEL-28 melanoma
  TGI: > 100 µM
SNB-75 CNS
  TGI: > 100 µM
U251 CNS
  TGI: > 100 µM

## Cc1cc2occ(S(=O)(=O)NC(=O)Nc3ccc(Cl)cc3)c(=O)c2c(=O)o1
786-0 renal
  TGI: > 100 µM
A549 NSCLC
  TGI: > 100 µM
CAKI-1 renal
  TGI: > 100 µM
EKVX NSCLC
  TGI: > 100 µM
MDA-N
  TGI: > 100 µM
NCI-H226 lung
  TGI: > 100 µM
SF-268 CNS
  TGI: > 100 µM
SK-MEL-28 melanoma
  TGI: > 100 µM
SNB-75 CNS
  TGI: > 100 µM
U251 CNS
  TGI: > 100 µM
